Consider 32 compounds from patent publication US9868728B2, “Quinazoline derivatives, compositions, and uses related thereto” (Emory University, priority 2010, dated 2018).

Each structure is given as a SMILES string.

The subject of one test is human neutrophils. Briefly: ROS production in human neutrophils. It counts as cell-based. Conditions: Neutrophil, which express the Nox2 system, read-out: IC50 of inhibition of ROS production. An excerpt: The Nox2 inhibition activity of two compounds is shown in FIG. 1, along with data from the two assay controls.
The target of a further test is T1, NOX2 (Homo sapiens, UniProt P04839).
T1 construct: isolated plasma membranes from human neutrophils as a source for Nox2-p22phox; from tissue; host or cells: Plasma membranes of human neutrophils (Nox2-p22phox); cytosolic factors recombinant from E. coli
T1 sequence (P04839 2-570 limits assumed): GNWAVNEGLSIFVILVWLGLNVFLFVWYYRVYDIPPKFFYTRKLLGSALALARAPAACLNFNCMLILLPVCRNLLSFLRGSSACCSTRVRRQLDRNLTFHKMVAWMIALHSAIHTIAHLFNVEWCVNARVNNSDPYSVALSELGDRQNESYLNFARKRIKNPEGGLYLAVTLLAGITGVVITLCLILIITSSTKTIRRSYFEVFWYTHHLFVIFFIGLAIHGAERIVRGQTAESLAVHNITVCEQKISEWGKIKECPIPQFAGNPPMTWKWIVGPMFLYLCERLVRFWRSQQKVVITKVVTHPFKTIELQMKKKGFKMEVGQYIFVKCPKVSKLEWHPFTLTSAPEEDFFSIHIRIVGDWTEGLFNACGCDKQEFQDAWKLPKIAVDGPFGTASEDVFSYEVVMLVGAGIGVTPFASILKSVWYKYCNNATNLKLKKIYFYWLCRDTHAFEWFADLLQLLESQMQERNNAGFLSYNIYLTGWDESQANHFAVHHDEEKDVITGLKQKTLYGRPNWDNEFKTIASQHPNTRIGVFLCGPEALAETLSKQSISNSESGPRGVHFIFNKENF
T1 sequence (P13498 2-195 partner limits assumed): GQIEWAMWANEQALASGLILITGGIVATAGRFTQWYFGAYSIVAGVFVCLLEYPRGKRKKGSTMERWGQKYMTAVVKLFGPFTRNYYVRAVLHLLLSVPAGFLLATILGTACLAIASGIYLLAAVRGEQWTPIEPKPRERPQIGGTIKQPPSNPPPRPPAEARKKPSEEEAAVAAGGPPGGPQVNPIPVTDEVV
Briefly: Nox2 cell-free assay (LO12 luminescence). Type of test: biochemical. Particulars: Nox2 cell-free system; for IC50: read-out: NOX2 IC50 (concentration giving half-maximal inhibition); for Emax: value in parentheses, read-out: % inhibition (maximum inhibition achieved at a very high concentration of the compound). Here is the method: The following compounds were tested according to the procedures provided in the experimental section. Assays were carried out using the Nox2 cell-free system. The IC50 value is the concentration giving half-maximal inhibition, while the “% inhibition” shown in parentheses is the maximum inhibition achieved at a very high concentration of the compound. 100% refers to complete inhibition within experimental error of the assay.
In certain assays a Cell-Free recombinant NOX-2 system (consisting of isolated plasma membranes from human neutrophils as a source for Nox2-p22phox, supplemented with recombinant p47phox, p67phox and Rac1Q61L (activated Rac), expressed in and isolated from of E. coli. LO12 luminescence was used as a readout to monitor enzymatic activity.
Plasma membranes were prepared from human neutrophils, which express large amounts of Nox2 and stored at −80 C until use. Membranes are mixed with recombinant, purified cytosolic regulatory proteins (p67Np47 chimera, and constitutively active Rac1 mutant Q61) and FAD, along with varying concentrations of compound, and LO12, which luminesces when it reacts with ROSvi. The reaction is started by addition of NADPH and SDS (an artificial stimulus for Nox2). See Curnutte et al., (1987) J. Biol. Chem. 262: 6450-6452.

Another test deals with T2, Nox4 DH (Homo sapiens, UniProt Q9NPH5).
T2 sequence (Q9NPH5 304-578 limits assumed): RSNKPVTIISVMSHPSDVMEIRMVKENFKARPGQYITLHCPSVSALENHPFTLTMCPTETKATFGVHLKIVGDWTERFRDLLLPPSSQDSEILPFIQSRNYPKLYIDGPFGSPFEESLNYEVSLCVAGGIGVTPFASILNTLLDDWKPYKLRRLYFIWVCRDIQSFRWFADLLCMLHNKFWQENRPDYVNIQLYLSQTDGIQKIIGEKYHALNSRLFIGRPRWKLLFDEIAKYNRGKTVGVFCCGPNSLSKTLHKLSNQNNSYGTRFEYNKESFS
Briefly: Nox4 DH inhibition kinetics with NADPH. Conditions: versus substrate NADPH; major effect on apparent Km, minor effect on Vmax. Type of test: biochemical.

Regarding `CN(C)CCCCn1c(SCC(=O)Nc2nc(-c3ccc(Br)cc3)cs2)nc2ccccc2c1=O` [AS158b], in the test on human neutrophils, the IC50 came out at 1500 nM. Besides, at NOX2, the IC50 was determined as 2000 nM and the Emax worked out at 100%. Consider `CN(C)CCCn1c(=S)[nH]c2ccc(Cl)cc2c1=O.Cl` [TG6-44], for which the figures for the IC50 in the test with human neutrophils and on NOX2 were 2000 nM and 1000 nM, respectively. Besides, the “mode of inhibition of Nox4 DH” value on Nox4 DH is recorded as “competitive inhibitor”. Moreover, the Emax on NOX2 was 100%. On to `CSc1nc2ccccc2c(=O)n1CCC[N+](C)(C)C` [TG6-67], for which, on NOX2, the IC50 came out at 1500 nM and the Emax came out at 95%. On to `CN(C)CCCn1c(SC(=O)N2CCN(C)CC2)nc2ccccc2c1=O` [TG6-71], for which the “NOX2 IC50 (concentration giving half-maximal inhibition)” value at NOX2 is recorded as “Not active”. For the compound `CC(Sc1nc2ccccc2c(=O)n1CCCN(C)C)C(=O)Nc1nc(-c2cccc(Br)c2)cs1` (centres unmarked) [TG6-73], at NOX2, the IC50 is over 20000 nM and the Emax came out at 50%.

In the case of `CN(C)CCCn1c(OCC(=O)N2CCCCC2)nc2ccccc2c1=O` [TG6-74], the IC50 at NOX2 was over 20000 nM.

`CN(C)CCCn1c(OCC(=O)N2CCOCC2)nc2ccccc2c1=O` [TG6-76]: on NOX2, the IC50 was over 20000 nM.

`CN(C)CCCn1c(=S)[nH]c2ccc(F)cc2c1=O` [TG6-79]: at NOX2, the IC50 is 1500 nM and the Emax was found to be 60%. For `O=C(CSc1nc2ccccc2c(=O)n1CCN1CCCCC1)Nc1nc(-c2cccc(Br)c2)cs1` [TG6-81], on NOX2, the IC50 turned out to be 1500 nM and the Emax amounted to 70%. `O=C(CSc1nc2ccccc2c(=O)n1CCCN1CCOCC1)Nc1nc(-c2cccc(Br)c2)cs1` [TG6-82]: at NOX2, the “NOX2 IC50 (concentration giving half-maximal inhibition)” value was “Not active”. On the same count and under the same terms, the same measure for `CCSc1nc2ccccc2c(=O)n1CCCN1CCOCC1` [TG6-99-1]: “Not active”. With `CCSC1Nc2ccccc2C(=O)N1CCC[N+]1(CC)CCOCC1` (centres unmarked) [TG6-99-2], on NOX2, the IC50 turned out to be 1500 nM and the Emax turned out to be 99%. For the compound `N#CCCCCSc1nc2ccccc2c(=O)n1CCN1CCCCC1` [TG6-101], the “NOX2 IC50 (concentration giving half-maximal inhibition)” value at NOX2 was “Not active”. On to `CSc1nc2ccccc2c(=O)n1CCC[N+]1(C)CCOCC1` [TG6-103-1], for which, at NOX2, the IC50 came out at 1500 nM and the Emax is 100%. As to `CSc1nc2ccc(F)cc2c(=O)n1CCC[N+](C)(C)C` [TG6-103-2], on NOX2, the IC50 came out at 1000 nM and the Emax is 100%.

On to `O=c1c2cc(Cl)ccc2[nH]c(=S)n1CCN1CCNCC1` [TG6-170], for which, on NOX2, the IC50 turned out to be 2000 nM. Still for that read-out and setting: the same measure for `O=c1c2cc(Cl)ccc2[nH]c(=S)n1CCCN1CCCCC1` [TG6-172]: 1100 nM; for `O=C(c1ccc(F)cc1)N1CCN(CCn2c(=S)[nH]c3ccc(Cl)cc3c2=O)CC1` [TG6-173]: 2000 nM. Regarding `O=c1c2cc(Cl)ccc2[nH]c(=S)n1CCCN1CCCCC1` [TG6-243], the IC50 at NOX2 was determined as 600 nM. On to `CN(C)CCCn1c(=S)[nH]c2ccc(F)cc2c1=O` [TG6-248], for which the IC50 on NOX2 came to 600 nM. Take `O=c1c2ccccc2[nH]c(=S)n1CCCN1CCOCC1` [TG6-249]: the IC50 on NOX2 amounted to 1000 nM. For the compound `CN(C)CCCn1c(=S)[nH]c2cc(F)c(F)cc2c1=O` [TG6-250], the IC50 on NOX2 stood at 400 nM. The same measure, in the same setting: the result for `CCn1c(=S)[nH]c2ccc(F)cc2c1=O` [TG6-269-1] reads 700 nM; that for `CC(C)n1c(=S)[nH]c2cc3c(cc2c1=O)OCCO3` [TG6-272], 700 nM. Consider `CCCn1c(=S)[nH]c2ccc(Cl)cc2c1=O` [TG6-280], for which the IC50 at NOX2 was 8000 nM. Take `CC(C)n1c(=S)[nH]c2cc(F)c(F)cc2c1=O` [TG6-284-2]: the IC50 on NOX2 came to 700 nM.

As to `CN(C)c1cccc(-n2c(=S)[nH]c3ccc(Cl)cc3c2=O)c1` [TG6-285], the IC50 at NOX2 is 1300 nM.

Take `CN(C)CCCn1c(=S)[nH]c2cc3c(cc2c1=O)OCCO3` [TG6-290-1]: the IC50 at NOX2 was found to be 800 nM. For `COc1cc2[nH]c(=S)n(C#N)c(=O)c2cc1OC` [TG6-295-2], at NOX2, the IC50 worked out at 200 nM. In the case of `COc1ccc(N2CCN(CCn3c(=S)[nH]c4ccc(Cl)cc4c3=O)CC2)cc1` [TG7-20], the IC50 at NOX2 stood at 300 nM.

Consider `COc1ccc(N(C)CCCn2c(=S)[nH]c3ccc(Cl)cc3c2=O)cc1` [TG7-25], for which the IC50 on NOX2 turned out to be 200 nM. As to `COc1ccc(N2CCN(CCn3c(=S)[nH]c4cc(OC)c(OC)cc4c3=O)CC2)cc1` [TG7-29], the IC50 on NOX2 was 700 nM.
